Measurements: article PMC5635289, “Differential Effects of Angelicin Analogues on NF-κB Activity and IL-8 Gene Expression in Cystic Fibrosis IB3-1 Cells” (Mediators of Inflammation, 2017)

What was measured:
IB3-1 cells = assay: Cell proliferation assay on IB3-1 cells; format: cell-based; conditions: Homo sapiens, cell number/ml after 48 h of treatment
Description: Monolayers of 60% confluent IB3-1 cells were seeded in 24- or 12-well plates in LHC-8 medium in the presence of 5% FBS. After 24 h, TMA derivatives were added at serial dilutions and incubated for further 2-3 days. The effects of compounds (TMA derivatives) on the cell proliferation were analyzed as elsewhere described. A first analysis was performed with serial dilutions to obtain 50 μM, 200 μM, and 800 μM solutions. In order to determine IC50 values, the following concentrations were used 12.5, 25, 50, 100, 200, and 800 μM. In order to prepare the cells for counting, they were washed with PBS 1X and detached with trypsin/EDTA. Cells were suspended in physiological solution and counted with a Z2 Coulter Counter (Coulter Electronics, Hialeah, FL, USA). The cell number/ml was determined as IC50 after 2 days of culture, when untreated cells are in log phase of cell growth.
In order to obtain preliminary information on the biological properties of TMA derivatives, their effects on cell growth were examined on IB3-1 cell line, excellent biological model to study new potential anti-inflammatory molecules. The use of this cell line to study the expression of proinflammatory molecules under a variety of stimuli is well established. Monolayers of 60% confluent IB3-1 cells were seeded in 12-well plate in LHC-8 medium with 5% FBS. After 24 h, compounds were added at different concentrations and the cell number/ml was determined after further 48 h of culture.

NF-κB p50 = biological target: T1, NF-κB p50 (Homo sapiens, UniProt P19838); assay: EMSA, inhibition of NF-κB/DNA interactions; format: binding; conditions: NF-κB p50 and 32P-labeled NF-κB oligonucleotide, MIC = minimal inhibitory concentration, 12.5 μM was the lowest concentration used
T1 construct: This assay was performed using purified NF-κB p50; purchased Promega
T1 sequence (P19838 1-433 limits assumed): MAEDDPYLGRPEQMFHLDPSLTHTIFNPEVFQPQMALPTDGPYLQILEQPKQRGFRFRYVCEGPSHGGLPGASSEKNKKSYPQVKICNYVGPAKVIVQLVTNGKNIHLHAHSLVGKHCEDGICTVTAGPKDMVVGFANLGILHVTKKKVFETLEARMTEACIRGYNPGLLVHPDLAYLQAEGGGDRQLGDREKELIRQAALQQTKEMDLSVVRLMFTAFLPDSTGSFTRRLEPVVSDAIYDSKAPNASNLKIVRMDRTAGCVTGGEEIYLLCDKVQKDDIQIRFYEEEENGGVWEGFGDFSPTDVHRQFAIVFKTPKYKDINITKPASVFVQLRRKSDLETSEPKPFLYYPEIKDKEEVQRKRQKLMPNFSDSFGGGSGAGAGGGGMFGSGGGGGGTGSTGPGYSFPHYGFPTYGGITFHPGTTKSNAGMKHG
Description: Electrophoretic mobility shift assays were performed using double-stranded ^32P-labeled oligonucleotides as target DNA. Binding reactions were set up as previously described in binding buffer (10% glycerol, 0.05% NP-40, 10 mM Tris-HCl pH 7.5, 50 mM NaCl, 0.5 mM DTT, and 10 mM MgCl2), in the presence of 0.1 μl/20 μl of NF-κB p50 (50 gsu) (Promega, Madison, WI, USA) and 0.25 ng of labeled oligonucleotide, in a total volume of 20 μl. After 30 min binding at room temperature, samples were electrophoresed at constant voltage (200 V for 30 min) through a low ionic strength (0.25 TBE buffer) (1 TBE/40.089 M Tris-borate, 0.002 M EDTA) on 6% polyacrylamide gels until the tracking dye (bromophenol blue) reached the bottom of a 16 cm slab. Gels were dried and exposed for autoradiography with intensifying screens at […]. In these experiments, DNA/protein complexes migrate through the gel with slower efficiency. In studies on the inhibitors of protein/DNA interactions, addition of the reagents was as follows: (i) nuclear factors, (ii) active principles, (iii) binding buffer, and (iv) labeled oligonucleotides mimicking the binding sites for TF to be modulated. The nucleotide sequence of double-stranded target DNA utilized in these experiments was 5′-CGC TGG GGA CTT TCC ACG G-3′ (sense strand, NF-κB). The synthetic oligonucleotides utilized in this study were purchased from Sigma Genosys (Sigma Genosys, Cambs, UK). To calculate the effective concentrations, three different autoradiograms obtained from different time exposures were scanned and compared to control EMSA performed without addition of angelicin analogues (two independent experiments were performed).
The effects of TMA derivatives on NF-κB- (nuclear factor-kappaB-) mediated induction of proinflammatory genes was verified first in vitro by electrophoretic mobility shift assay (EMSA) with the aim to verify and quantify the possible inhibition of NF-κB/DNA interactions. This assay was performed using purified NF-κB p50 and ^32P-labeled target NF-κB double-stranded oligonucleotide mimicking the NF-κB consensus sequence present within the IL-8 gene promoter.

IL-8 mRNA = assay: RT-qPCR quantification of IL-8 mRNA in TNF-α-induced IB3-1 cells; format: cell-based, human; conditions: Homo sapiens, IB3-1, 24 h, TNF-α-induced IB3-1 cells, RT-qPCR, na = not active at the used concentrations; for inhibition at 10 µM: 10 μM compound; for inhibition at 1 µM: 1 μM compound
Description: Monolayers of 60% confluent IB3-1 cells were seeded in 6- or 12-well plates in LHC-8 medium in the presence of 5% FBS. After 24 h, pure derivatives were added, 5 h before stimulation with TNF-α 80 ng/ml (ORF Genetics, Kopavogur, Iceland), and incubated for a further 24 h. Total RNA was extracted using TRIzol Reagent (Sigma-Aldrich, St. Louis, MO) following the manufacturer's instructions. Reverse transcription (RT) was performed using Reverse Transcription System kit (Promega, Madison, WI): 1 μg of total RNA was reverse transcribed in the presence of 5 mM MgCl2, 1X reverse transcription buffer (10 mM Tris-HCl, 50 mM KCl, and 0.1% Triton X-100), 1 mM each dNTPs, 20 U recombinant Rnasin Ribonuclease Inhibitor, 15 U AMV Reverse Transcriptase, and 0.5 μg oligo(dT)15 primers in a total volume of 20 μl for 10 min at 70°C and 60 min at 42°C. The resulting cDNA was quantified by relative quantitative real-time PCR (real-time qPCR). For real-time qPCR, 1 μl of cDNA was used for each SYBR Green reaction to quantify the relative expression of IL-8. Each 25 μl of total reaction volume contained 1 μl of cDNA, 10 pmol of primers, 1 iQTM SYBR Green Supermix (Bio-Rad Laboratories Inc., Hercules, CA). Real-time PCRs were performed for a total of 40 cycles (denaturation, 95°C for 10 s; annealing, 68°C for 30 s for IL-8, 65°C for 30 s for IL-6; elongation, 72°C for 60 s) using an iCycler IQ5 (Bio-Rad Laboratories Inc., Hercules, CA). Primer sequences were as follows: IL-8 forward: 5′-GTGCAGTTTTGCCAAGGAGT-3′ and IL-8 reverse: 5′-TTATGAATTCTCAGCCCTCTTCAAAAACTTCTC-3′. The relative proportions of each amplified template were determined utilizing the threshold cycle (CT) value for each performed PCR. The DDCt method was used to compare gene expression data. Each sample was quantified in duplicate. Changes in mRNA expression level were calculated following normalization with the GAPDH calibrator gene (housekeeping gene) and expressed as fold change over untreated samples [24]. Duplicates of negative controls (no template cDNA) were also run with every experimental plate to assess specificity and indicate potential contamination.
With the aim to study the effective anti-inflammatory properties of these new psoralen derivatives, we decided to further characterize the TMA derivatives for their potential activities on the expression of IL-8 gene, known to be involved in the lung inflammatory process in CF. […] More specifically, we were first interested in identifying compounds with low antiproliferative activity, but effective in downmodulating inflammatory gene expression without achieving a full suppression of these genes. We therefore employed IB3-1 cystic fibrosis cells, incubated for 5 h with two concentrations (1 μM and 10 μM) of selected compounds, and then treated with TNF-α ([…]). In the IB3-1 cystic fibrosis cellular model, NF-κB-dependent genes, including the gene encoding for the proinflammatory protein IL-8, generally are activated following infection with P. aeruginosa or treatment with TNF-α or IL-1β [26, 28, 31]. This feature is very important in the pathophysiology of CF, since several clinical complications are caused by exacerbation of this inflammatory response. After 1 day of incubation, cellular RNA was isolated for RT-qPCR analysis. All the TMA analogues found to be active in inhibiting NF-κB/DNA interactions were analyzed for their effects on inhibition of TNF-α-induced accumulation of IL-8 mRNA.

Structure (SMILES)	IC50 (IB3-1 cells) [µM]	Inhibition of NF-κB/DNA complex (MIC) (NF-κB p50)	inhibition at 10 µM (IL-8 mRNA) [%]	inhibition at 1 µM (IL-8 mRNA) [%]
Cc1coc2c1c1occ(C)c1c1oc(=O)cc(C)c21 [Compound 29]	> 800	<12.5 (^∗) μM	12	–
Cc1cc2c(C(F)(F)F)cc(=O)oc2c2c(C)coc12 [Compound 7]	> 800	> 100 µM	–	–
CC(=O)OCc1oc2c(C)cc3c(C)cc(=O)oc3c2c1C [Compound 2]	> 800	> 100 µM	–	–
Cc1oc2c(c(C)cc3oc(=O)cc(C)c32)c1C [Compound 34]	> 800	<12.5 (^∗) μM	47	68
Cc1oc2c(C)cc3c(C)cc(=O)oc3c2c1CO [Compound 23]	452	–	11	3
Cc1cc2c(CO)cc(=O)oc2c2cc(CO)oc12 [Compound 24]	197	> 100 µM	–	–
Cc1c(C)c2cc(C)c3occc3c2oc1=O [Compound 28]	> 800	12.5 to 25 µM	36	21
Cc1cc2oc(=O)cc(C)c2c2c1C=CCO2 [Compound 36]	> 800	12.5 to 25 µM	74	77
COCc1oc2c(C)cc3c(C)cc(=O)oc3c2c1C [Compound 3]	> 800	> 100 µM	–	–
Cc1cc(=O)oc2c1cc(Br)c1occ(C)c12 [Compound 13]	> 800	12.5 µM	–	–
COCc1cc(=O)oc2c1cc(C)c1occ(C)c12 [Compound 9]	> 800	12.5 µM	–	–
Cc1cc(=O)oc2c1cc(C)c1occc12 [Compound 4]	> 800	75 µM	–	–
Cc1cc(=O)[nH]c2c1cc(C)c1oc(CO)c(C)c12 [Compound 18]	> 800	–	–	–
Cc1cc2ccc(=O)oc2c2c(C)coc12 [Compound 6]	454	> 100 µM	–	–
Cc1cc2c(CBr)cc(=O)oc2c2c(C)coc12 [Compound 10]	< 50	< 12.5 µM	–	–
Cc1cc2c(o1)c(C)cc1c(CO)cc(=O)oc12 [Compound 25]	551	25 to 50 µM	–	–
Cc1cc(=O)oc2c1ccc1occ(C)c12 [Compound 11]	182	> 100 µM	–	–
Cc1cc(=O)oc2c3c(ccc12)OC(CBr)C3 (centres unmarked) [Compound 22]	180	> 100 µM	–	–
COCc1cc(=O)oc2c1cc(C)c1scc(C)c12 [Compound 15]	> 800	> 100 µM	–	–
Cc1cc(=O)n(C)c2c1cc(C)c1occ(C)c12 [Compound 19]	131	–	–	–
COC1Cc2c(ccc3c(C)cc(=O)oc23)O1 (centres unmarked) [Compound 21]	678	–	–	–
Cc1cc(=O)oc2c3c(ccc12)OC(C)C3 (centres unmarked) [Compound 20]	154	–	–	–
Cc1cc(=O)oc2c1cc(C)c1[nH]nnc12 [Compound 31]	> 800	25 µM	–	–
Cc1cc(=O)oc2c1cc(C)c1scc(C)c12 [Compound 14]	> 800	> 100 µM	–	–
Cc1cc(=O)[nH]c2c1cc(C)c1occ(C)c12 [Compound 17]	193	> 100 µM	–	–
Cc1cc2c(CO)cc(=O)oc2cc1O [Compound 37]	> 800	12.5 to 25 µM	–	–
